Measurements as given in patent US7977512B2, “Amine derivative, and production method and use thereof” (Kureha Corporation, priority 2005, dated 2011).
Counter-ions that a name gives are not always drawn.

Key:
[1] = test system: Pseudoperonospora cubensis; assay: Protection test of Pseudoperonospora cubensis on cucumber cotyledons; format: in vivo; conditions: 144 h, spraying concentration 1000 ppm, water dispersible powder sprayed onto cucumber cotyledons (var. Sagami-Hanjiro) one day before inoculation, incidence scored six days after inoculation, read-out: Protective value
Procedure: Water dispersible powders were prepared in the same manner as in Formulation Example 2 using the compound (2a), (2aa), (2b), (2ba), (15), (16), (17), (18), (19), or (20). The each water dispersible powder was diluted with water to a predetermined concentration (1000 mg/l) and suspended. The diluted suspension was sprayed onto cucumber cotyledons (var. Sagami-Hanjiro) grown in a rectangular plastic pot (6.4 cm×6.4 cm) at 100 1/10 a. After air-drying the sprayed leaves one day, a Pseudoperonospora cubensis spore suspension was sprayed onto the leaves to inoculate, and the leaves were maintained at 25° C. under high humidity conditions. After six days from the inoculation, the incidence of Pseudoperonospora cubensis was investigated according to the following criteria. The protective value is calculated according to the following equation 1.
Protective value(%)=(1−average incidence in sprayed area/average incidence in non-sprayed area)×100 [Equation 1]

Row | SMILES | melting point [°C] | pest or weed control at 1000 ppm [1] [%]
1 | CCCN(CCC)CCCCN(CCOC(C)=O)Cc1ccc(CN)cc1.Cl | 105 to 106 | –
2 | CCCN(CCC)CCCCNCc1ccc(CN)cc1.Cl | 205 to 210 | –
3 | CCCN(CCC)CCCCNCc1ccc(C#N)cc1 (as salt: hydrochloride) [(2aa), 4-[(4-dipropylaminobutyl)amino]methylbenzonitrile hydrochloride] | 198 to 200 | –
4 | CCCN(CCC)CCCCNCc1ccc(C#N)cc1 [(2a), 4-[(4-dipropylaminobutyl)amino]methylbenzonitrile] | – | 100
5 | CCCN(CCC)CCCCN(C)Cc1ccc(C#N)cc1 [(2b), 4-[(4-dipropylaminobutyl)methylamino]methylbenzonitrile] | – | 100
6 | CCCN(CCC)CCCCN(Cc1ccc(Br)cc1)Cc1ccc(C#N)cc1 [(15), 4-{[(4-bromobenzyl)-(4-dipropylaminobutyl)amino]methyl}benzonitrile] | – | 100
7 | CCCN(CCC)CCCCN(Cc1ccc(C#N)cc1)Cc1ccc(N(CC)CC)cc1 [(16), 4-{[(4-diethylaminobenzyl)-(4-dipropylaminobutyl)amino]methyl}benzonitrile] | – | 100
8 | CCCN(CCC)CCCCN(Cc1ccc(C#N)cc1)Cc1ccc(C)o1 [(17), 4-{[(4-dipropylaminobutyl)-(5-methylfuran-2-ylmethyl)amino]methyl}benzonitrile] | – | 100
9 | CCCN(CCC)CCCCN(Cc1ccc(C#N)cc1)Cc1ccc[nH]1 [(18), 4-{[(4-dipropylaminobutyl)-(1H-pyrrol-2-ylmethyl)amino]methyl}benzonitrile] | – | 100
10 | CCCN(CCC)CCCCN(Cc1ccc(C#N)cc1)Cc1ccc(OC)cc1 [(19), 4-{[(4-dipropylaminobutyl)-(4-methoxybenzyl)amino]-methyl}-benzonitrile] | – | 90
11 | CCCN(CCC)CCCCN(CC(=O)OCc1ccccc1)Cc1ccc(C#N)cc1 [(20), [(4-cyanobenzyl)-(4-dipropylaminobutyl)amino]benzyl acetate] | – | 100
